Measurements reported in patent EP0200565A2, “Method for production of peroxidase” (NISSIN FOOD PRODUCTS CO., LTD., priority 1985, dated 1986).

tested on: peroxidase; test: Activity of the isolated peroxidase towards various hydrogen donors; type: biochemical, Coprinus cinereus IFO 30116; conditions: not given
Procedure: Its action is shown by the followina reaction formula: [drawing 2] where AH2 is a hydrogen donor, and A is the oxidized hydrogen donor.
The enzyme was assayed for activity with respect to a variety of hydrogen donors.
Values snown in Taoie 2 are relative ones with that of phenol set at 100%.

Row | Compound | Strength of Action [%]
1 | Cc1cc(-c2ccc(N)c(C)c2)ccc1N [o-tolidine] | 5400

same assay, conditions: relative values with that of phenol set at 100%; peroxidase of Coprinus cinereus IFO 30116

Row | Compound | Strength of Action
2 | Oc1ccccc1O [Catechol] | 460%
3 | COc1ccccc1O [Guaiacol] | 200%
4 | Oc1ccc(O)cc1 [Hydroquinone] | 57%
5 | Oc1ccccc1 [Phenol] | 100 (%)
6 | Oc1cccc(O)c1 [Resorcinol] | 0%
7 | COc1cc(-c2ccc(N)c(OC)c2)ccc1N [o-dianisidine] | 5400%
8 | Oc1cccc2ccccc12 [α-naphthol] | 1200%
9 | δ-hydroquinon | 57%
